Tested on: tobacco budworm (Heliothis virescens [Fabricius])
Experiment: surface-treated diet test, insecticidal activity against tobacco budworm
Assay type: in vivo
Set-up: mortality: concentration or dose not given beside the values
Conditions: 0.25 millimoles of candidate insecticide on the surface of the diet, second instar larvae, five-day exposure; for Percent Mortality / mortality: compared to total number of insects infested; for Percent Growth Inhibition / pest or weed control at 0.25 mmol/well: inhibition of insect weight relative to untreated controls; for mortality / pest or weed control at 0.25 mmol/well: Heliothis virescens, 120 h; for mortality: read-out: Percent Mortality; for pest or weed control at 0.25 mmol/well: read-out: Percent Growth Inhibition
Experimental: Candidate insecticides were evaluated for activity against the tobacco budworm (Heliothis virescens [Fabricius]) in a surface-treated diet test.
In this test one mL of molten (65-70° C.) wheat germ-based artificial diet was pipetted into each well of a four by six (24 well) multi-well plate (ID# 430345-15.5 mm dia.×17.6 mm deep; Corning Costar Corp., One Alewife Center, Cambridge, Mass. 02140). The diet was allowed to cool to ambient temperature before treatment with candidate insecticide.
For a determination of insecticidal activity, solutions of the candidate insecticides were prepared for testing using a Packard 204DT Multiprobe® Robotic System (Packard Instrument Company, 800 Research Parkway, Meriden, Conn. 06450), in which the robot first diluted a standard 50 millimolar DMSO solution of candidate insecticide with a 1:1 water/acetone solution (V/V) in a ratio of 1:7 stock solution to water/acetone. The robot subsequently pipetted 40 microliters of the so-prepared solution onto the surface of the diet in each of three wells in the 24 multi-well plate. The process was repeated with solutions of seven other candidate insecticides. Once treated, the contents of the multi-well plate were allowed to dry, leaving 0.25 millimoles of candidate insecticide on the surface of the diet, or a concentration of 0.25 millimolar. Appropriate untreated controls containing only DMSO on the diet surface were also included in this test.
For evaluations of the insecticidal activity of a candidate insecticide at varying rates of application, the test was established as described above using sub-multiples of the standard 50 millimolar DMSO solution of candidate insecticide. For example, the standard 50 millimolar solution was diluted by the robot with DMSO to give 5, 0.5, 0.05, 0.005, 0.0005 millimolar, or more dilute solutions of the candidate insecticide. In these evaluations there were six replicates of each rate of application placed on the surface of the diet in the 24 multi-well plate, for a total of four rates of application of candidate insecticide in each plate.
In each well of the test plate was placed one second instar tobacco budworm larvea, each weighing approximately five milligrams. After the larvae were placed in each well, the plate was sealed with clear polyfilm adhesive tape. The tape over each well was perforated to ensure an adequate air supply. The plates were then held in a growth chamber at 25° C. and 60% relative humidity for five days (light 14 hours/day).
After the five-day exposure period insecticidal activity for each rate of application of candidate insecticide was assessed as percent inhibition of insect weight relative to the weight of insects from untreated controls, and percent mortality when compared to the total number of insects infested.
The test compounds of formula I are identified by numbers that correspond to those in Table 1.

| Structure (SMILES) | Percent Mortality [%] | Percent Growth Inhibition [%] | mortality [%] | pest or weed control at 0.25 mmol/well [%] |
| --- | --- | --- | --- | --- |
| OC1(C(c2ccc(OC(F)(F)F)cc2)c2ccc(OC(F)(F)F)cc2)CC[N+](O)(Cc2ccc(Oc3ccccn3)cc2)CC1.[Cl-] (centres unmarked) [Compound 497] | 100 | 100 |  |  |
| CCn1nnc(-c2ccc(CN3CCC(O)(C(c4cccc(Cl)c4)c4cccc(Cl)c4)CC3)cc2)n1 [Compound 24] | 0 | 98 |  |  |
| OC(COc1ccc(Cl)cc1)CN1CCC(O)(C(c2ccc(OC(F)(F)F)cc2)c2ccc(OC(F)(F)F)cc2)CC1 (centres unmarked) [Compound 470] | 17 | 89 |  |  |
| OC1(C(c2ccc(C(F)(F)F)cc2)c2cccc(F)c2)CCN(Cc2ccc(Oc3ncccn3)cc2)CC1 (centres unmarked) [Compound 12] | 0 | 100 |  |  |
| CC(C)OC(=O)Nc1ccc(C[N+]2([O-])CCC(O)(C(c3ccc(OC(F)(F)F)cc3)c3ccc(OC(F)(F)F)cc3)CC2)cc1 (centres unmarked) [Compound 119] | 100 | 100 |  |  |
| [N-]=[N+]=NCC1(C(c2ccc(C(F)(F)F)cc2)c2ccc(C(F)(F)F)cc2)CCN(Cc2ccc(OCC3CC3)cc2)CC1 [Compound 449] | 0 | 78 |  |  |
| OC1(C(c2ccccc2Cl)c2ccccc2Cl)CCN(Cc2ccc(Oc3ncccn3)cc2)CC1 [Compound 1] | 0 | 57 |  |  |
| [O-][N+]1(Cc2ccc(Oc3ccc(Cl)nn3)cc2)CCC(O)(C(O)(c2ccc(OC(F)(F)F)cc2)c2ccc(OC(F)(F)F)cc2)CC1 (centres unmarked) [Compound 425] | 100 | 100 |  |  |
| [O-][N+]1(Cc2ccc(Oc3ccccn3)cc2)CCC(O)(C(c2ccc(OC(F)(F)F)cc2)c2ccc(C(F)(F)F)cc2)CC1 (centres unmarked) [Compound 343] | 100 | 100 |  |  |
| CCOC(=O)CNC(=O)Oc1ccc(CN2CCC(O)(C(c3ccc(OC(F)(F)F)cc3)c3ccc(OC(F)(F)F)cc3)CC2)cc1 [Compound 317] | 100 | 100 |  |  |
| [O-][N+]1(Cc2ccc(C=NOCCF)cc2)CCC(O)(C(c2ccc(OC(F)(F)F)cc2)c2ccc(OC(F)(F)F)cc2)CC1 (centres unmarked) [Compound 389] | 100 | 100 |  |  |
| CCn1nnc(-c2ccc(CN3CCC(O)(C(c4ccc(OC(F)(F)F)cc4)c4ccc(OC(F)(F)F)cc4)CC3)cc2)n1 [Compound 25] | 100 | 100 |  |  |
| OC1(C(c2ccc(OC(F)(F)F)cc2)c2ccc(OC(F)(F)F)cc2)CCN(Cc2ccc(C=NOCCF)cc2)CC1 [Compound 312] | 100 | 100 |  |  |
| OC(COc1ccccc1Cl)CN1CCC(O)(C(c2ccc(OC(F)(F)F)cc2)c2ccc(OC(F)(F)F)cc2)CC1 (centres unmarked) [Compound 472] | 17 | 93 |  |  |
| COCCOc1ccc(CN2CCC(O)(C(c3ccc(OC(F)(F)F)cc3)c3ccc(OC(F)(F)F)cc3)CC2)cc1 [Compound 308, 4-{bis[4-(trifluoromethoxy)phenyl]methyl}-1-{[4-(2-methoxyethoxy)phenyl]methyl}piperidin-4-ol] |  |  | 100 | 100 |
| O=C(O)CC(O)(CC(=O)O)C(=O)[O-].OC1(C(c2ccc(C(F)(F)F)cc2)c2ccc(C(F)(F)F)cc2)CC[N+](O)(Cc2ccc(Oc3ccc(Cl)nn3)cc2)CC1 (centres unmarked) [Compound 488] | 100 | 100 |  |  |
| OC1(C(c2ccc(C(F)(F)F)cc2)c2cccc(Cl)c2)CCN(Cc2ccc(Oc3ncccn3)cc2)CC1 (centres unmarked) [Compound 14] | 100 | 100 |  |  |

| Structure (SMILES) | Percent Mortality [%] | Percent Growth Inhibition [%] | mortality [%] | pest or weed control at 0.25 mmol/well [%] |
| --- | --- | --- | --- | --- |
| [O-][N+]1(Cc2ccc(OCc3ccccc3)cc2)CCC(O)(C(c2ccc(OC(F)(F)F)cc2)c2ccc(OC(F)(F)F)cc2)CC1 (centres unmarked) [Compound 381] | 100 | 100 |  |  |
| CCON=Cc1ccc(CN2CCC(O)(C(c3ccc(OC(F)(F)F)cc3)c3ccc(OC(F)(F)F)cc3)CC2)cc1 [Compound 28] | 100 | 100 |  |  |
| CCn1nnc(-c2ccc(C[N+]3([O-])CCC(O)(C(c4ccc(OC(F)(F)F)cc4)c4ccc(OC(F)(F)F)cc4)CC3)cc2)n1 (centres unmarked) [Compound 114] | 100 | 100 |  |  |
| [O-][N+]1(Cc2ccc(Oc3ccccn3)cc2)CCC(O)(C(c2ccc(OC(F)(F)F)cc2)c2cccc(Cl)c2Cl)CC1 (centres unmarked) [Compound 456] | 100 | 100 |  |  |
| O=Cc1ccc(C(c2ccc(OC(F)(F)F)cc2)C2(O)CCN(Cc3ccc(Oc4ccccn4)cc3)CC2)cc1 (centres unmarked) [Compound 256] | 17 | 100 |  |  |
| Cc1cc(Cl)ccc1C(c1ccc(OC(F)(F)F)cc1)C1(O)CCN(Cc2ccc(Oc3ccccn3)cc2)CC1 (centres unmarked) [Compound 436] | 100 | 100 |  |  |
| OC1(C(c2ccc3c(c2)OC(F)(F)O3)c2ccc3c(c2)OC(F)(F)O3)CCN(Cc2ccc(Oc3ccccn3)cc2)CC1 [Compound 446] | 100 | 100 |  |  |
| CC(=O)OCC1(C(c2ccc(C(F)(F)F)cc2)c2ccc(C(F)(F)F)cc2)CC[N+]([O-])(Cc2ccc(Oc3ncccn3)cc2)CC1 (centres unmarked) [Compound 468] | 17 | 100 |  |  |
| Cn1nnc(-c2ccc(C[N+]3([O-])CCC(O)(C(O)(c4ccc(OC(F)(F)F)cc4)c4ccc(OC(F)(F)F)cc4)CC3)cc2)n1 (centres unmarked) [Compound 122] | 100 | 100 |  |  |
| OC1(C(c2ccccc2)c2ccc(OC(F)(F)F)cc2)CCN(Cc2ccc(Oc3ccccn3)cc2)CC1 (racemic) [Compound 288] | 100 | 100 |  |  |
| CC(C)(C)c1ccc(C(c2ccc(OC(F)(F)F)cc2)C2(O)CCN(Cc3ccc(Oc4ccccn4)cc3)CC2)cc1 (centres unmarked) [Compound 257] | 100 | 100 |  |  |
| O=C(NCc1ccc(Cl)c(Cl)c1)Oc1ccc(CN2CCC(O)(C(c3ccc(OC(F)(F)F)cc3)c3ccc(OC(F)(F)F)cc3)CC2)cc1 [Compound 323] | 33 | 100 |  |  |
| CC(C)=CCCC(C)=CCON=Cc1ccc(C(c2ccc(OC(F)(F)F)cc2)C2(O)CCN(Cc3ccc(Oc4ccccn4)cc3)CC2)cc1 (racemic) [Compound 284] | 17 | 100 |  |  |
| CCCCNC(=O)Oc1ccc(CN2CCC(O)(C(c3ccc(OC(F)(F)F)cc3)c3ccc(OC(F)(F)F)cc3)CC2)cc1 [Compound 326] | 100 | 100 |  |  |
| COCCOc1ccc(C[N+]2([O-])CCC(O)(C(c3ccc(OC(F)(F)F)cc3)c3ccc(OC(F)(F)F)cc3)CC2)cc1 (centres unmarked) [Compound 385, 4-{bis[4-(trifluoromethoxy)phenyl]methyl}-4-hydroxy-1-{[4-(2-methoxyethoxy)phenyl]methyl}piperidin-1-oxide] |  |  | 100 | 100 |
| OC1(C(c2ccc(Cl)cc2)c2ccc(Cl)cc2)CCN(Cc2ccc(Oc3ccccn3)cc2)CC1 [Compound 267] | 100 | 100 |  |  |
| CC(C)(C)NC(=O)Oc1ccc(CN2CCC(O)(C(c3ccc(OC(F)(F)F)cc3)c3ccc(OC(F)(F)F)cc3)CC2)cc1 [Compound 311] | 100 | 100 |  |  |

From patent US8119563B2, “N-substituted azacycles” (FMC Corporation, priority 2003, dated 2012)
